Source: patent publication US20070172957A1, “Methods of identifying anti-inflammatory macrolides” (TAISHO PHARMACEUTICAL CO., LTD., priority 2004, published 2007)

System: genes predictive for the anti-inflammatory macrolide effect
Experiment: Genes statistically predictive of Clari response: differentially expressed with Clari but not the inactive macrolides MAA or Josa (Appendix E)
Format: cell-based
Conditions: pooled group mean
Text: In the case of the above-mentioned (i) related to arachidonic acid biosynthesis, specifically, methods of the embodiment involve assaying whether a test macrolide alters biosynthesis of arachidonic acid, alters the expression or activities of enzymes involved in the biosynthesis or activation of arachidonic acid (e.g., arachidonic acid CoA synthetase, delta-6 desaturase, fatty acid elongase, and delta-5 desaturase, AA-related genes in Tables 2 and 3), or alters the expression of genes identified as predictive for the anti-inflammatory macrolide effect (Appendix E). Assays in which arachidonic acid or gene expression or enzymatic activity is detected can be carried out after contacting a cell with a test macrolide. Any cell line that secretes prostaglandin or produces arachidonic acid can be used. Epithelial and macrophages lines (e.g., A549 or THP-1) are suitable for this purpose; other cell lines can be identified by carrying out assays such as those described in the specific Examples, below. Alternatively, screening assays can be carried out after adding a test macrolide to an in vitro cell system (e.g., a cellular extract or liver microsome preparation) or an in vitro enzyme assay system.

CC[C@H]1OC(=O)[C@H](C)[C@@H](O[C@H]2C[C@@](C)(OC)[C@@H](O)[C@H](C)O2)[C@H](C)[C@@H](O[C@@H]2O[C@H](C)C[C@H](N(C)C)[C@H]2O)[C@](C)(O)C[C@@H](C)/C(=N\OCOCCOC)[C@H](C)[C@@H](O)[C@]1(C)O [roxithromycin]
1.03: mean group, DNASE1L1 (SpotID 47950) | mean group, SRF (SpotID 48026) | mean group, MAPK12 (SpotID 48233) | mean group, CCT3 (SpotID 48345) | mean group, SpotID 49374 (SpotID 49374 (gene symbol not given))
0.99: mean group, MSH3 (SpotID 47504) | mean group, PRLR (SpotID 47850)
0.86: mean group, BARD1 (SpotID 48461) | mean group, ARTS-1 (SpotID 49155) | mean group, CNOT3 (SpotID 50099)
0.92: mean group, KIAA1172 (SpotID 46679) | mean group, RPL13A (SpotID 48500) | mean group, TRRAP (SpotID 49435) | mean group, AP1G2 (SpotID 49524) | mean group, PRKDC (SpotID 50736)
1.18: mean group, P4HB (SpotID 47366) | mean group, CETN2 (SpotID 47415) | mean group, P4HA1 (SpotID 47935) | mean group, P4HA1 (SpotID 48707) | mean group, TM9SF2 (SpotID 49007)
0.93: mean group, ARHGDIA (SpotID 46843) | mean group, SSI-1 (SpotID 47846) | mean group, MAFB (SpotID 48747) | mean group, RRS1 (SpotID 49169) | mean group, RFC1 (SpotID 49947) | mean group, HIF1A (SpotID 50022)
1.01: mean group, CDIPT (SpotID 46896) | mean group, GCN5L1 (SpotID 48301) | mean group, APOE (SpotID 49233) | mean group, BET1 (SpotID 50645)
0.71: mean group, THBS1 (SpotID 47987)
0.91: mean group, HSPBP1 (SpotID 48693)
1.14: mean group, EPOR (SpotID 47314) | mean group, NR4A2 (SpotID 47679) | mean group, PRSS25 (SpotID 49006) | mean group, SRC (SpotID 49446)
1.20: mean group, BNIP3L (SpotID 49028)
1.08: mean group, SDCBP (SpotID 48646) | mean group, TNFRSF10B (SpotID 49272) | mean group, IL10RB (SpotID 50267) | mean group, IKKE (SpotID 50342)
1.02: mean group, GCS1 (SpotID 47432) | mean group, RPN2 (SpotID 47988) | mean group, CUTL1 (SpotID 48004) | mean group, LOC54543 (SpotID 49577) | mean group, NDUFA2 (SpotID 50050)
1.04: mean group, GRB2 (SpotID 48266) | mean group, SCOP (SpotID 50079)
1.09: mean group, PACE (SpotID 46923) | mean group, UBC (SpotID 49514) | mean group, SERPINF1 (SpotID 49679) | mean group, AD022 (SpotID 49800)
1.16: mean group, PPIB (SpotID 49314)
1.06: mean group, ENTPD6 (SpotID 47811) | mean group, NFE2L1 (SpotID 48557) | mean group, RALA (SpotID 48732) | mean group, ATP2B4 (SpotID 49915) | mean group, SRP19 (SpotID 50601)
0.82: mean group, SNK (SpotID 47418)
0.94: mean group, TRAP1 (SpotID 47622) | mean group, GOT1 (SpotID 47802) | mean group, MAPK9 (SpotID 48365) | mean group, SpotID 48486 (SpotID 48486 (gene symbol not given)) | mean group, IKKE (SpotID 48725) | mean group, TEB4 (SpotID 49360) | mean group, VTN (SpotID 49490) | mean group, CYC1 (SpotID 49787)
0.85: mean group, EREG (SpotID 46988)
1.13: mean group, MGEA5 (SpotID 48411) | mean group, SpotID 50591 (SpotID 50591 (gene symbol not given))
1.00: mean group, CFL1 (SpotID 50351) | mean group, ARHC (SpotID 50513)
1.11: mean group, BTN3A2 (SpotID 49673)
0.84: mean group, LOC51295 (SpotID 50349)
0.97: mean group, NBS1 (SpotID 47754) | mean group, DDC (SpotID 48456) | mean group, ITGAE (SpotID 48921) | mean group, YWHAH (SpotID 49318)
0.95: mean group, NUBP1 (SpotID 47241) | mean group, DCTN1 (SpotID 47439) | mean group, SERPINA1 (SpotID 47522) | mean group, HSPA9B (SpotID 47694) | mean group, ZAP3 (SpotID 48160) | mean group, PPP3CB (SpotID 48717)
1.12: mean group, MKNK2 (SpotID 46825) | mean group, CLN2 (SpotID 49618)
1.28: mean group, SERPINB1 (SpotID 48415)
0.90: mean group, C2orf3 (SpotID 47034) | mean group, FRDA (SpotID 48137)
0.89: mean group, METAP2 (SpotID 46935) | mean group, RANBP1 (SpotID 47446) | mean group, POLA (SpotID 47776) | mean group, CKS2 (SpotID 50590)
0.96: mean group, ARHGAP1 (SpotID 46648)
1.10: mean group, ADAM11 (SpotID 47352) | mean group, APLP2 (SpotID 48530) | mean group, XBP1 (SpotID 48620) | mean group, AD022 (SpotID 49767) | mean group, GOCAP1 (SpotID 50421) | mean group, AD022 (SpotID 50738)
0.88: mean group, SFRS7 (SpotID 48149) | mean group, KIAA0217 (SpotID 48804) | mean group, SERPINB1 (SpotID 49117) | mean group, CHAF1B (SpotID 49737)
1.07: mean group, CSTF3 (SpotID 49606) | mean group, BN51T (SpotID 50584)
1.05: mean group, USF2 (SpotID 47973)
0.98: mean group, ARAF1 (SpotID 48521) | mean group, FECH (SpotID 48654) | mean group, MGP (SpotID 50511)
0.81: mean group, FLJ20699 (SpotID 46633)
